Laboratory results: patent US20250339518A1 (priority 2023, published 2025)

Legend:
Format in all cases: cell-based, murine
[1] = tested on: MB49-STING KO cell line
[2] = tested on: MB49 cells
[3] = tested on: MB49-Double KO (MB49 2KO) cell line
[4] = tested on: MB49 cells; remark: listed apart in the source

SMILES | VAX014-induced IFN-β production, pIRF3/IRF3 ratios and PD-L1/MHC-I surface expression after inhibitor preincubation [1] | Type I IFN (IFN-β) production in culture supernatants [2] | IFN-β production [3] | Surface PD-L1 expression [3] | PD-L1 and MHC-I surface expression [1] | PD-L1 surface expression [4]
CC(C)c1ccc2oc3nc(N)c(C(=O)O)cc3c(=O)c2c1 [Amlexanox] | nearly to baseline conditions of the untreated control |  |  |  |  | 
Cc1ccc2c(=O)c3cccc(CC(=O)O)c3oc2c1C [DMXAA] |  | stimulated IFN production | Complete loss | Complete loss | loss of PD-L1 and MHC-I | able to induce PD-L1 expression
